From ChEMBL document CHEMBL1146472, “Cytotoxic cyclotides from Viola tricolor” (J Nat Prod, 2004)
pIC50: −log10 of the molar value. Where a SMILES comes first, the peptide text is derived from it. Bridges are numbered along the chain shown (N, C = ends).

Key:
U-937/GTB = assay: Cytotoxicity against human U937/GTB cells after 72 hrs by trypan blue exclusion method; type: functional, cell-based
RPMI-8226 = assay: Cytotoxicity against human RPMI8226/S cells after 72 hrs by trypan blue exclusion method; type: functional, cell-based

Row | Structure (SMILES) | pIC50 (U-937/GTB; Homo sapiens, U-937/GTB, 72 h) | pIC50 (RPMI-8226; Homo sapiens, RPMI8226/S, 72 h) | pIC50 (U-937/GTB; u-937/gtb) | pIC50 (RPMI-8226; rpmi8226/s)
1 | CC[C@H](C)[C@@H]1NC(=O)[C@H](C)NC(=O)[C@H](CO)NC(=O)[C@H](CO)NC(=O)[C@H]([C@@H](C)CC)NC(=O)[C@@H]2CSSC[C@@H]3NC(=O)[C@H](C(C)C)NC(=O)[C@H](CCCCN)NC(=O)[C@H](CO)NC(=O)[C@H](CCCCN)NC(=O)[C@H](CSSC[C@H](NC(=O)[C@H](CO)NC(=O)[C@H](CCC(=O)O)NC(=O)CN)C(=O)N[C@@H](C(C)C)C(=O)N[C@@H](Cc4c[nH]c5ccccc45)C(=O)N[C@@H]([C@@H](C)CC)C(=O)N4CCC[C@H]4C(=O)N2)NC(=O)[C@H](CO)NC(=O)[C@H](CSSC[C@@H](C(=O)O)NC(=O)[C@@H]2CCCN2C(=O)[C@H]([C@@H](C)CC)NC(=O)CNC(=O)[C@H](CC(N)=O)NC(=O)[C@H](CCCNC(=N)N)NC(=O)[C@H](Cc2ccc(O)cc2)NC3=O)NC(=O)CNC1=O [CYCLOVIOLACIN O2] (H-GESCVWIPCISSAIGCSCKSKVCYRNGIPC-OH; disulfide 4-18, 9-23, 16-30) | 6.52 | 7.00 |  | 
2 | COc1cccc2c1C(=O)c1c(O)c3c(c(O)c1C2=O)C[C@@](O)(C(=O)CO)C[C@@H]3O[C@H]1C[C@H](N)[C@H](O)[C@H](C)O1 [DOXORUBICIN] | 7.00 | 7.00 |  | 
3 | CC(C)C[C@@H]1NC(=O)CNC(=O)[C@H](CC(N)=O)NC(=O)[C@H](CCCNC(=N)N)NC(=O)[C@H]([C@@H](C)O)NC(=O)[C@@H]2CSSC[C@@H]3NC(=O)[C@H]([C@@H](C)O)NC(=O)CNC(=O)CNC(=O)[C@H](C(C)C)NC(=O)[C@@H](NC(=O)[C@@H](NC(=O)[C@H](CCC(=O)O)NC(=O)CN)[C@@H](C)O)CSSC[C@H](NC(=O)[C@H](CO)NC(=O)[C@H](CSSC[C@@H](C(=O)O)NC(=O)[C@H](C(C)C)NC(=O)[C@@H]4CCCN4C1=O)NC(=O)CNC(=O)[C@@H]1CCCN1C(=O)[C@H]([C@@H](C)O)NC(=O)[C@H](CC(N)=O)NC3=O)C(=O)N[C@@H](CO)C(=O)N[C@@H](Cc1c[nH]c3ccccc13)C(=O)N1CCC[C@H]1C(=O)N[C@@H](C(C)C)C(=O)N2 | 5.22 | 5.52 |  | 
4 | CC[C@H](C)[C@@H]1NC(=O)[C@H](C)NC(=O)[C@H](CO)NC(=O)[C@H]([C@@H](C)O)NC(=O)[C@H]([C@@H](C)CC)NC(=O)[C@@H]2CSSC[C@@H]3NC(=O)[C@H](C(C)C)NC(=O)[C@H](CCCCN)NC(=O)[C@H](CO)NC(=O)[C@H](CCCCN)NC(=O)[C@H](CSSC[C@H](NC(=O)[C@H](CO)NC(=O)[C@H](CCC(=O)O)NC(=O)CN)C(=O)N[C@@H](C(C)C)C(=O)N[C@@H](Cc4c[nH]c5ccccc45)C(=O)N[C@@H]([C@@H](C)CC)C(=O)N4CCC[C@H]4C(=O)N2)NC(=O)[C@H](CO)NC(=O)[C@H](CSSC[C@@H](C(=O)O)NC(=O)[C@@H]2CCCN2C(=O)[C@H]([C@@H](C)CC)NC(=O)CNC(=O)[C@H](CC(N)=O)NC(=O)[C@H](CCCNC(=N)N)NC(=O)[C@H](Cc2ccc(O)cc2)NC3=O)NC(=O)CNC1=O [VITRI A] (H-GESCVWIPCITSAIGCSCKSKVCYRNGIPC-OH; disulfide 4-18, 9-23, 16-30) | 6.22 | 6.00 |  | 
5 | CC[C@H](C)[C@@H]1NC(=O)[C@@H]2CCCN2C(=O)[C@H](CC(C)C)NC(=O)CNC(=O)[C@H](CC(N)=O)NC(=O)[C@H](CCCNC(=N)N)NC(=O)[C@H]([C@@H](C)O)NC(=O)[C@@H]2CSSC[C@@H]3NC(=O)[C@H]([C@@H](C)O)NC(=O)CNC(=O)CNC(=O)[C@H](C(C)C)NC(=O)[C@@H](NC(=O)[C@@H](NC(=O)[C@H](CCC(=O)O)NC(=O)CN)[C@@H](C)O)CSSC[C@H](NC(=O)[C@H](CO)NC(=O)[C@H](CSSC[C@@H](C(=O)O)NC1=O)NC(=O)CNC(=O)[C@@H]1CCCN1C(=O)[C@H]([C@@H](C)O)NC(=O)[C@H](CC(N)=O)NC3=O)C(=O)N[C@@H](CO)C(=O)N[C@@H](Cc1c[nH]c3ccccc13)C(=O)N1CCC[C@H]1C(=O)N[C@@H](C(C)C)C(=O)N2 (stereo in doubt; form 1) | 5.40 | 5.40 |  | 
6 | CC[C@H](C)[C@@H]1NC(=O)[C@@H]2CCCN2C(=O)[C@H](CC(C)C)NC(=O)CNC(=O)[C@H](CC(N)=O)NC(=O)[C@H](CCCNC(=N)N)NC(=O)[C@H]([C@@H](C)O)NC(=O)[C@@H]2CSSC[C@@H]3NC(=O)[C@H]([C@@H](C)O)NC(=O)CNC(=O)CNC(=O)[C@H](C(C)C)NC(=O)[C@@H](NC(=O)[C@@H](NC(=O)[C@H](CCC(=O)O)NC(=O)CN)[C@@H](C)O)CSSC[C@H](NC(=O)[C@H](CO)NC(=O)[C@H](CSSC[C@@H](C(=O)O)NC1=O)NC(=O)CNC(=O)[C@@H]1CCCN1C(=O)[C@H]([C@@H](C)O)NC(=O)[C@H](CC(N)=O)NC3=O)C(=O)N[C@@H](CO)C(=O)N[C@@H](Cc1c[nH]c3ccccc13)C(=O)N1CCC[C@H]1C(=O)N[C@@H](C(C)C)C(=O)N2 (stereo in doubt; form 2) |  |  | 5.15 | 5.22
